Results taken from the supplement of paper PMC13380429.
± gives the standard deviation of the averaged measurements.

Tests used:
Details in all cases: 72 h
[1] = test system: Caco-2; assay: cell viability relative to DMSO; higher = less toxic
[2] = test system: Calu-3; assay: as above
[3] = test system: HepG2; assay: as above
[4] = test system: U2OS; assay: as above
[5] = test system: Vero E6; assay: as above
[6] = test system: Caco-2; assay: relative viability EC50 (midpoint between 100% and the lowest measured viability); higher = less toxic
[7] = test system: Calu-3; assay: as above
[8] = test system: HepG2; assay: as above
[9] = test system: U2OS; assay: as above
[10] = test system: Vero E6; assay: as above
[11] = test system: Caco-2; assay: drug sensitivity score (DSS) for viability; higher = more toxic; extreme values may be limits of the assay
[12] = test system: Calu-3; assay: as above
[13] = test system: HepG2; assay: as above
[14] = test system: U2OS; assay: as above
[15] = test system: Vero E6; assay: as above

Structure (SMILES)	cell viability ([1]; 1 nM)	cell viability ([1]; 10 nM)	cell viability ([1]; 100 nM)	cell viability ([1]; 1000 nM)	cell viability ([1]; 10000 nM)	cell viability ([2]; 1 nM)	cell viability ([2]; 10 nM)	cell viability ([2]; 100 nM)	cell viability ([2]; 1000 nM)	cell viability ([2]; 10000 nM)	cell viability ([3]; 1 nM)	cell viability ([3]; 10 nM)	cell viability ([3]; 100 nM)	cell viability ([3]; 1000 nM)	cell viability ([3]; 10000 nM)	cell viability ([4]; 1 nM)	cell viability ([4]; 10 nM)	cell viability ([4]; 100 nM)	cell viability ([4]; 1000 nM)	cell viability ([4]; 10000 nM)	cell viability ([5]; 1 nM)	cell viability ([5]; 10 nM)	cell viability ([5]; 100 nM)	cell viability ([5]; 1000 nM)	cell viability ([5]; 10000 nM)	relative viability EC50 [6]	relative viability EC50 [7]	relative viability EC50 [8]	relative viability EC50 [9]	relative viability EC50 [10]	drug sensitivity score [11]	drug sensitivity score [12]	drug sensitivity score [13]	drug sensitivity score [14]	drug sensitivity score [15]
Cc1nc(Nc2ncc(C(=O)Nc3c(C)cccc3Cl)s2)cc(N2CCN(CCO)CC2)n1 [dasatinib]	101%	97.6%	77%	45.5%	33.2%	95.1%	72%	36.6%	30.2%	18.1%	102%	99%	87.1%	80.6%	30.1%	100%	93.9%	85%	53.9%	36.8%	99%	93.1%	76.1%	29.6%	16.9%	0.201 µM	0.0245 µM	1.62 µM	0.33 µM	0.218 µM	12.9	24.7	6.2	10.3	15.9
CCc1cnn2c(NCc3ccc[n+]([O-])c3)cc(N3CCCC[C@H]3CCO)nc12 [dinaciclib]	100%	77.9%	19.9%	25.1%	30.8%	103%	83.2%	39.9%	39.3%	39.6%	99.9%	55.6%	5.7%	6.4%	6.4%	99.3%	56%	3.6%	4%	5.4%	101%	100%	14.8%	7%	4.5%	0.0147 µM	0.0147 µM	0.0105 µM	0.0107 µM	0.044 µM	28.2	21.6	34.5	35.2	27.5
CCOC(=S)SSC(=S)OCC [dixanthogen]	104%	96.3%	104%	118%	104%	101%	106%	104%	96%	103%	101%	111%	101%	95.1%	88.8%	104%	99.7%	100%	101%	104%	97.3%	95.6%	91.5%	90.4%	97.3%	> 10 µM	> 10 µM	> 10 µM	> 10 µM	> 10 µM	0	0	0.1	0	0
N[C@H](C(=O)O)[C@H](O)c1ccc(O)c(O)c1 [droxidopa]	95.4%	102%	103%	96.4%	102%	98.8%	98.1%	99.7%	87%	102%	90.7%	95.5%	98.8%	114%	104%	98%	95.6%	97.5%	97.2%	100%	95.1%	102%	96.8%	98.5%	104%	> 10 µM	> 10 µM	> 10 µM	> 10 µM	> 10 µM	0	0	0	0	0
Cc1cc(Cl)ccc1OCCCC(=O)NO [droxinostat]	104%	101%	101%	102%	86.5%	96.3%	92.8%	88.8%	97.6%	86.8%	100%	92.4%	90.7%	97.4%	87%	96.9%	106%	96.6%	100%	79.5%	103%	99.4%	98.8%	97%	86.7%	> 10 µM	> 10 µM	> 10 µM	> 10 µM	> 10 µM	0.1	0	0	0.6	0.3
O=C(NCCCN1CCOCC1)c1ccc(Cl)cc1 [eprobemide]	106%	92.3%	108%	103%	98.8%	105%	87.6%	105%	92.2%	103%	108%	107%	88.6%	110%	76.6%	102%	92.7%	103%	97.4%	99.5%	92.1%	96.3%	100%	99.1%	99.6%	> 10 µM	> 10 µM	> 10 µM	> 10 µM	> 10 µM	0	0	0.5	0	0
O=C(O)CSCC(=O)NC1CCSC1=O (stereo not given) [erdosteine]	107%	102%	97%	84.8%	96.9%	99.8%	96%	102%	92.9%	98%	90.5%	102%	94.3%	93.8%	102%	100%	105%	96.2%	97.9%	101%	111%	96.9%	104%	91%	96.8%	> 10 µM	> 10 µM	> 10 µM	> 10 µM	> 10 µM	0	0	0	0	0
O=C(CN1CCN(Cc2ccc3c(c2)OCO3)CC1)N1c2ccccc2Sc2ccccc21 [fenoverine]	106%	110%	105%	98.5%	82.7%	92.8%	109%	99.2%	103%	110%	94.6%	104%	101%	90%	90.3%	95.1%	97.2%	98.1%	94.9%	96.7%	87.4%	98.2%	98.4%	95%	84.7%	> 10 µM	> 10 µM	> 10 µM	> 10 µM	> 10 µM	0.6	0	0	0	0
CC(=O)OCC(=O)[C@@]12OC(C)(C)O[C@@H]1C[C@H]1[C@@H]3C[C@H](F)C4=CC(=O)C=C[C@]4(C)[C@@]3(F)[C@@H](O)C[C@@]12C [fluocinonide]	91.5%	95.6%	93.8%	104%	99.2%	102 ± 7.5%	97.2 ± 6%	87.8 ± 1.1%	98.2 ± 3.8%	101 ± 3.7%	100 ± 2.5%	95.5 ± 6%	101 ± 8.3%	104 ± 1.2%	100 ± 6.2%	98.5 ± 1.5%	96 ± 3.3%	95.2 ± 1.4%	96.7 ± 4.4%	98.7 ± 4.3%	101 ± 7.7%	93.6 ± 0.57%	97.9 ± 13%	96.7 ± 5.4%	98.5 ± 2.8%	> 10 µM	> 10 µM	> 10 µM	> 10 µM	> 10 µM	0	0	0	0	0
O=c1[nH]cnc2c([C@@H]3N[C@H](CO)[C@@H](O)[C@H]3O)c[nH]c12 [forodesine]	103%	98.4%	98.4%	101%	98.6%	92.4%	89%	97.2%	91.5%	94.4%	106%	104%	110%	92.6%	102%	102%	97.6%	94.4%	103%	98%	103%	96.8%	96.8%	97.2%	94.7%	> 10 µM	> 10 µM	> 10 µM	> 10 µM	> 10 µM	0	0	0	0	0
CC(C)CN(C[C@@H](OP(=O)(O)O)[C@H](Cc1ccccc1)NC(=O)O[C@H]1CCOC1)S(=O)(=O)c1ccc(N)cc1 [fosamprenavir]	93.7%	91.5%	96.5%	98.1%	99.6%	113%	103%	107%	98.2%	108%	99.8%	106%	102%	93.5%	98.7%	101%	94.8%	95.9%	94.2%	109%	102%	101%	99%	100%	96.5%	> 10 µM	> 10 µM	> 10 µM	> 10 µM	> 10 µM	0	0	0	0	0
COc1ccc(/C=C\c2cc(OC)c(OC)c(OC)c2)cc1OP(=O)(O)O [fosbretabulin]	104%	116%	55.4%	51.1%	45.4%	104%	120%	90.2%	61.4%	45.9%	104%	108%	96.7%	21.9%	23.9%	98.4%	105%	94%	25.4%	19.5%	103%	100%	38.4%	13%	7%	0.0584 µM	0.457 µM	0.285 µM	0.316 µM	0.0744 µM	15.2	8.1	14.7	14.6	24.1
N[C@@H](CSCCCO)C(=O)O [fudosteine]	96.1%	93.9%	97.3%	97.2%	106%	102%	111%	107%	96.8%	115%	93.1%	83.3%	96.1%	88.8%	105%	96.4%	101%	97.2%	102%	108%	97.7%	92.7%	99.6%	94.1%	100%	> 10 µM	> 10 µM	> 10 µM	> 10 µM	> 10 µM	0	0	0	0	0
CC(C)=CCC/C(C)=C/CC/C(C)=C/CCC(=O)OC/C=C(\C)CCC=C(C)C [geranyl-farnesylacetate]	95.6%	95.8%	106%	91.4%	98.9%	99.1%	94.6%	96.8%	93%	96.4%	101%	107%	90.8%	112%	110%	98.4%	95.3%	102%	96.7%	103%	104%	102%	94.4%	105%	115%	> 10 µM	> 10 µM	> 10 µM	> 10 µM	> 10 µM	0	0	0	0	0
